Assay results published in patent US11198696B2, “Substituted xanthines as inhibitors of transient receptor potential cation channel subfamily c, member 5 activity” (Boehringer Ingelheim International GmbH, priority 2018, dated 2021).
pIC50: −log10 of the molar value.

Biological target: T1, TRPC5 (Homo sapiens, UniProt Q9UL62)
T1 construct: expressed in transfected cells; host or cells: HEK293 TREx cells, inducible TRPC5 expression, induced 20-48 hours
T1 sequence (Q9UL62 1-973): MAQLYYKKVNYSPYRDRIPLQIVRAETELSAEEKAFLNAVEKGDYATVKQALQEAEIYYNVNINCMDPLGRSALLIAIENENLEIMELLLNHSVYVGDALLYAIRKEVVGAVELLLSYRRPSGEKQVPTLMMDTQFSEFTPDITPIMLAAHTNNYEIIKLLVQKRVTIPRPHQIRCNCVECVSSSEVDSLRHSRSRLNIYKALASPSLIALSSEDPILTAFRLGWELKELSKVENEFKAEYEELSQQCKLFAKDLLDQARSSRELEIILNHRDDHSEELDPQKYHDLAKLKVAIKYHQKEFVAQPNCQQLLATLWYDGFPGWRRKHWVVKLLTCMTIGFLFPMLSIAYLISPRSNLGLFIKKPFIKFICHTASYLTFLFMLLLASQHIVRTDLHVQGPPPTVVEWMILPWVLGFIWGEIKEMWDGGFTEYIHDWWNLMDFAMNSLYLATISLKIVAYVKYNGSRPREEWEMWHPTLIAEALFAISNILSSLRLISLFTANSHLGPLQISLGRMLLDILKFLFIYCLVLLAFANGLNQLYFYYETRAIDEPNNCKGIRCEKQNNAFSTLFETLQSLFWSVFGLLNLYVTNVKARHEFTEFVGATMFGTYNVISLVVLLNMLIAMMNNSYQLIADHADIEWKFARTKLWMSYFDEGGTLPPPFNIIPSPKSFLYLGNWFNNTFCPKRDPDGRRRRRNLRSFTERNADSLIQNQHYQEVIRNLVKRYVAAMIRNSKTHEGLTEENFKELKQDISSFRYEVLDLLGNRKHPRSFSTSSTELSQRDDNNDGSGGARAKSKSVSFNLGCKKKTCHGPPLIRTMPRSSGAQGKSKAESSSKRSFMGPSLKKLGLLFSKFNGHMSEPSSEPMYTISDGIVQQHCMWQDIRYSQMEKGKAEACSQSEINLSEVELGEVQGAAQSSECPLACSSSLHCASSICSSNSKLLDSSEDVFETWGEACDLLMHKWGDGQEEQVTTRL
Test: Assay A: Determination of TRPC5-Inhibition (whole-cell patch clamp)
Format: cell-based
Settings: closest prior art compounds of WO2014/143799, TRPC5-expressing HEK293 TREx cells, LaCl3-activated current
From the text: Assay A: Determination of TRPC5-Inhibition
Patch clamp experiments permit the detection of currents through the TRPC5 channel in a cell line. In normal whole-cell patch clamp recordings, a glass electrode is brought into contact with a single cell and a high-resistance (gigaohm) seal is established with the cell membrane. The membrane is then ruptured to achieve the whole-cell configuration, permitting control of the voltage of the cell membrane and measurement of currents flowing across the membrane using the amplifier attached to the electrode and resulting in the replacement of cytoplasm with the pipette solution. A perfusion system permits control of the extracellular solution, including the addition of blockers and activators of the current. The current can be activated by including 1.4 μM free Ca2+ in the pipette (intracellular) solution, and 80 μM LaCl3 in the extracellular solution.
TRPC5 cells were induced 20-48 hours, removed from growth plates, and replated at low density (to attain good single-cell physical separation) on glass coverslips for measurement. In some cases, cells were grown in low density overnight on glass coverslips. Patch clamp recordings were made in the whole-cell mode with a holding potential of −40 mV. Every 5 seconds, a voltage ramp was applied from −120 to +100 mV, 400 ms in duration. Currents elicited were quantified at −80 mV and +80 mV. The internal solution consisted of 140 mM cesium aspartate, 10 mM HEDTA, 2 mM CaCl2, 2.27 mM MgCl2 and 10 mM HEPES, pH 7.2, with 1,400 nM calculated free Ca2+. The external solution consisted of 150 mM NaCl, 4.5 mM 15 KCl, 1 mM MgCl2, 2 mM CaCl2, 10 mM HEPES, 10 mM glucose, 1 mM EGTA, pH 7.4. Upon addition of LaCl3, TRPC5 current was induced only in TRPC5-expressing cells and not in parental HEK293 TREx cells. Removal of the LaCh stimulus causes most of the current to go away. Potential blockers were tested for ability to block both inward and outward currents in the continued presence of LaCl3.
IC50 of a compound of the invention was estimated by testing the compound 500 nM. […] Compounds blocking 50% or more at 500 nM are retested at multiple concentrations, and the % block is fitted by standard equations to determine IC50 accurately, using a 5/6 point concentration-response experiment.

Q: With `COc1ccc(-c2nc3c(c(=O)n(CCCO)c(=O)n3C)n2Cc2ccccc2)cc1` [Example 441 in WO2014/143799, reference compound] as the compound, how does the pIC50 read?
A: 6.49

Q: `COc1ccc(-c2nc3c(c(=O)n(CCCO)c(=O)n3C)n2Cc2ccc(F)cc2)cc1` [Example 465 in WO2014/143799, reference compound] was tested. Which pIC50 did it give?
A: 7.28

Same assay, conditions: compounds of the present invention, TRPC5-expressing HEK293 TREx cells, LaCl3-activated current

Q: How did the pIC50 turn out when `CCn1c(=O)n(CCCO)c(=O)c2c1nc(-c1ccc(OC3CCC3)nc1C)n2Cc1ccccc1` [Example 52] was run?
A: 8.80

Q: How did the pIC50 turn out when `CCn1c(=O)n(CCCO)c(=O)c2c1nc(-c1ccc(OC3CCC3)nc1)n2Cc1ccc(Cl)cc1F` [Example 53] was run?
A: 8.80

Q: With `CCn1c(=O)n(CCCO)c(=O)c2c1nc(-c1ccc(OC3CCC3)nc1)n2Cc1ccc(C(F)(F)F)cc1` [Example 54] as the compound, how does the pIC50 read?
A: 8.80

Q: With `CCn1c(=O)n(CCCO)c(=O)c2c1nc(-c1ccc(OC3CCC3)nc1)n2Cc1ccc(C)cc1` [Example 55] as the compound, how does the pIC50 read?
A: 8.67

Q: `CCn1c(=O)n(CCCO)c(=O)c2c1nc(-c1ccc(OC3CCC3)nc1)n2Cc1ccc(F)c(F)c1` [Example 56] was tested. Which pIC50 did it give?
A: 8.58

Q: `C#Cc1ccc(Cn2c(-c3ccc(OC4CCC4)nc3)nc3c2c(=O)n(CCCO)c(=O)n3CC)cc1` [Example 57] was tested. Which pIC50 did it give?
A: 8.57

Q: How did the pIC50 turn out when `CCn1c(=O)n(CCCO)c(=O)c2c1nc(-c1ccc(OC3CCC3)nc1)n2Cc1cc(F)cc(F)c1` [Example 58] was run?
A: 8.44

Q: `CCn1c(=O)n(CCCO)c(=O)c2c1nc(-c1ccc(OC3C[C@@H]4C[C@@H]4C3)nc1C)n2Cc1ccc(F)cc1` (stereo partly drawn) [Example 59] was tested. Which pIC50 did it give?
A: 8.76

Q: With `CCn1c(=O)n(CCCO)c(=O)c2c1nc(-c1ccc(OC3CCC3C)nc1C)n2Cc1ccccc1` (stereo not drawn) [Example 60] as the compound, how does the pIC50 read?
A: 8.68

Q: How did the pIC50 turn out when `CCn1c(=O)n(CCCO)c(=O)c2c1nc(-c1ccc(OC3CCCC3)nc1C)n2Cc1ccccc1` [Example 61] was run?
A: 8.62

Q: How did the pIC50 turn out when `CCn1c(=O)n(CCCO)c(=O)c2c1nc(-c1ccc(OC3CCC3)nc1F)n2Cc1ccc(F)cc1` [Example 62] was run?
A: 8.47

Q: With `CCn1c(=O)n(CCCO)c(=O)c2c1nc(-c1ccc(OC3CCC3C)nc1)n2Cc1ccccc1` (stereo not drawn) [Example 63] as the compound, how does the pIC50 read?
A: 8.50

Q: `CCn1c(=O)n(CCCO)c(=O)c2c1nc(-c1ccc(OC3CCC3)nc1)n2Cc1ccc(F)cc1` [Example 64] was tested. Which pIC50 did it give?
A: 8.57
